Measured values as given in patent publication US20220062240A1, “METHODS OF TREATING CANCER USING A CLK INHIBITOR” (BioSplice Therapeutics, Inc., priority 2018, published 2022).
Like-named read-outs stand apart in the source and are kept apart here.

Tests used:
[1] = target: CLK3 (Homo sapiens, UniProt P49761); assay: CLK3 kinase activity assay (Z-lyte, Ser/Thr 18 peptide)
[2] = system: ovarian cancer (4 cell lines); assay: CellTiter-Glo Viability Assay, ovarian cancer; assay type: cell-based; details: Homo sapiens, inhibition of cancer cell proliferation
[3] = system: liver cancer (3 cell lines); assay: CellTiter-Glo Viability Assay, liver cancer; assay type: cell-based; details: Homo sapiens, inhibition of cancer cell proliferation
[4] = system: haematopoietic & lymphoid tumors (13 cell lines); assay: CellTiter-Glo Viability Assay, haematopoietic & lymphoid tumors; assay type: cell-based; details: Homo sapiens, inhibition of cancer cell proliferation
[5] = system: MCF7; assay: CellTiter-Glo Viability Assay, breast cancer; assay type: cell-based; details: Homo sapiens, 96 h; MCF7, breast cancer, four days; read-out: EC50
[6] = system: CAMA1; assay: CellTiter-Glo Viability Assay, breast cancer; assay type: cell-based; details: Homo sapiens, CAMA-1, 96 h; CAMA1, breast cancer, four days; read-out: EC50
[7] = system: BT-549; assay: CellTiter-Glo Viability Assay, breast cancer; assay type: cell-based; details: Homo sapiens, 96 h; BT-549, breast cancer, four days; read-out: EC50
[8] = system: T47D; assay: CellTiter-Glo Viability Assay, breast cancer; assay type: cell-based; details: Homo sapiens, 96 h, breast cancer, four days, read-out: EC50
[9] = system: MDA-MB-231-Luc; assay: CellTiter-Glo Viability Assay, breast cancer; assay type: cell-based; details: Homo sapiens, 96 h; MDA-MB-231-Luc, breast cancer, four days; read-out: EC50
[10] = system: ZR-75-1; assay: CellTiter-Glo Viability Assay, breast cancer; assay type: cell-based; details: Homo sapiens, 96 h; ZR-75-1, breast cancer, four days; read-out: EC50
[11] = system: HCC1599; assay: CellTiter-Glo Viability Assay, breast cancer; assay type: cell-based; details: Homo sapiens, 96 h; HCC1599, breast cancer, four days; read-out: EC50
[12] = system: DU4475; assay: CellTiter-Glo Viability Assay, breast cancer; assay type: cell-based; details: Homo sapiens, DU-4475, 96 h; DU4475, breast cancer, four days; read-out: EC50
[13] = system: prostate cancer (5 cell lines); assay: CellTiter-Glo Viability Assay, prostate cancer; assay type: cell-based; details: Homo sapiens
[14] = system: all 50 cell lines; assay: CellTiter-Glo Viability Assay, average across all cell lines; assay type: cell-based; details: Homo sapiens; across all 50 cell lines; read-out: average EC50 for inhibition of cancer cell proliferation
In short: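 Human cancer cell lines from breast, colorectal, haematopoietic/lymphoid, liver, lung, ovarian, pancreatic and prostate tumours were seeded at 300-3,000 cells/well and exposed to compound in duplicate for four days at 37° C, 5% CO2. Viable cells were measured by ATP luminescence; EC50 values came from dose-response curves.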

[15] = system: colorectal cancer (6 cell lines); assay: CellTiter-Glo Viability Assay, colorectal cancer; assay type: cell-based; details: Homo sapiens, inhibition of cancer cell proliferation
[16] = system: lung cancer (4 cell lines); assay: CellTiter-Glo Viability Assay, lung cancer; assay type: cell-based; details: Homo sapiens, inhibition of cancer cell proliferation
[17] = system: pancreatic cancer (8 cell lines); assay: CellTiter-Glo Viability Assay, pancreatic cancer; assay type: cell-based; details: Homo sapiens, inhibition of cancer cell proliferation

Sequence of CLK3 (P49761 whole entry): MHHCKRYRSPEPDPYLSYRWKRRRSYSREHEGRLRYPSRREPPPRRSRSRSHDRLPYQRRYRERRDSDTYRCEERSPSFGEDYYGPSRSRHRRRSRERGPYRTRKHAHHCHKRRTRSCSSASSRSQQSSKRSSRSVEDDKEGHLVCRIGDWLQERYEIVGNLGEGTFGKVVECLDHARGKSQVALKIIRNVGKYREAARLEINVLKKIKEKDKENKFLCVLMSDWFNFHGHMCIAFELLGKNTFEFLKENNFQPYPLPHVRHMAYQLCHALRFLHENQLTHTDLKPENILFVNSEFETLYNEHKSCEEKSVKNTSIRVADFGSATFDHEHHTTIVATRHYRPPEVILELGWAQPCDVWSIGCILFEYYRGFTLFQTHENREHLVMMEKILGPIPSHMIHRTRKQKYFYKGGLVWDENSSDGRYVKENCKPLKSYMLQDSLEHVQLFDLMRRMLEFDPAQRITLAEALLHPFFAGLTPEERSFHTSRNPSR

## COc1ccc(NC(=O)c2n[nH]c3ccc(-c4cncc(CN5CCCCC5)c4)cc23)cn1 [Compound 59]
[1]
  EC50: 61.1 nM
[2]; PA-1, PA1 cell line, read-out: Ovarian cancer, EC50 (μM) PA1
  EC50: 0.27 µM
[2]; TOV112D, TOV-112D cell line, read-out: Ovarian cancer, EC50 (μM) TOV-112D
  EC50: 0.264 µM
[2]; OV-90 cell line, read-out: Ovarian cancer, EC50 (μM) OV-90
  EC50: 0.936 µM
[2]; OVCAR-3 cell line, read-out: Ovarian cancer, EC50 (μM) OVCAR-3
  EC50: 0.1 µM
[3]; SNU-398, SNU398 cell line, read-out: Liver cancer, EC50 SNU398
  EC50: 161 nM
[3]; HEPG2 cell line, read-out: Liver cancer, EC50 HEPG2
  EC50: 428 nM
[3]; PLC/PRF/5 cell line, read-out: Liver cancer, EC50 PLC/PRF/5
  EC50: 1030 nM
[4]; DND41, DND-41 cell line, read-out: Haematopoietic & Lymphoid tumors, EC50 (μM) DND-41
  EC50: 0.529 µM
[4]; MV4-11, MV-4-11 cell line, read-out: Haematopoietic & Lymphoid tumors, EC50 (μM) MV-4-11
  EC50: 0.077 µM
[4]; Rec1, REC-1 cell line, read-out: Haematopoietic & Lymphoid tumors, EC50 (μM) REC-1
  EC50: 0.133 µM
[4]; SU-DHL-4, SUDHL4 cell line, read-out: Haematopoietic & Lymphoid tumors, EC50 (μM) SUDHL4
  EC50: 0.525 µM
[4]; HL-60 cell line, read-out: Haematopoietic & Lymphoid tumors, EC50 (μM) HL-60
  EC50: 1.24 µM
[4]; JM1 cell line, read-out: Haematopoietic & Lymphoid tumors, EC50 (μM) JM1
  EC50: 0.115 µM
[4]; JURKAT, Clone E6-1 cell line, read-out: Haematopoietic & Lymphoid tumors, EC50 (μM) JURKAT, Clone E6-1
  EC50: 1.02 µM
[4]; JeKo-1 cell line, read-out: Haematopoietic & Lymphoid tumors, EC50 (μM) JeKo-1
  EC50: 0.141 µM
[4]; KASUMI-1 cell line, read-out: Haematopoietic & Lymphoid tumors, EC50 (μM) KASUMI-1
  EC50: 0.157 µM
[4]; Loucy cell line, read-out: Haematopoietic & Lymphoid tumors, EC50 (μM) Loucy
  EC50: 0.304 µM
[4]; MOLT-4 cell line, read-out: Haematopoietic & Lymphoid tumors, EC50 (μM) MOLT-4
  EC50: 0.689 µM
[4]; TF-1 cell line, read-out: Haematopoietic & Lymphoid tumors, EC50 (μM) TF-1
  EC50: 0.41 µM
[4]; TOLEDO cell line, read-out: Haematopoietic & Lymphoid tumors, EC50 (μM) TOLEDO
  EC50: 0.121 µM
[5]
  EC50: 853 nM
[6]
  EC50: 345 nM
[7]
  EC50: 473 nM
[8]
  EC50: 730 nM
[9]
  EC50: 636 nM
[10]
  EC50: 653 nM
[11]
  EC50: 286 nM
[12]
  EC50: 178 nM
[13]; DU-145, read-out: Prostate cancer EC50 Du-145
  EC50: 563 nM
[13]; PC-3, PC3 cell line, inhibition of cancer cell proliferation, read-out: Prostate cancer EC50 PC3
  EC50: 394 nM
[13]; 22Rv1 cell line, inhibition of cancer cell proliferation, read-out: Prostate cancer EC50 22Rv1
  EC50: 253 nM
[13]; LNCap clone FGC cell line, inhibition of cancer cell proliferation, read-out: Prostate cancer EC50 LNCap clone FGC
  EC50: 553 nM
[13]; VCaP (Sigma) cell line, inhibition of cancer cell proliferation, read-out: Prostate cancer EC50 VCaP (Sigma)
  EC50: 612 nM
[14]
  EC50: 434 nM
[15]; HCT-116, HCT116 cell line, read-out: Colorectal cancer, EC50 (μM) HCT116
  EC50: 0.193 µM
[15]; HT-29, HT29 cell line, read-out: Colorectal cancer, EC50 (μM) HT29
  EC50: 0.666 µM
[15]; SW-620, SW620 cell line, read-out: Colorectal cancer, EC50 (μM) SW620
  EC50: 0.187 µM
[15]; DLD-1 cell line, read-out: Colorectal cancer, EC50 (μM) DLD-1
  EC50: 0.376 µM
[15]; SW48 cell line, read-out: Colorectal cancer, EC50 (μM) SW48
  EC50: 0.132 µM
[15]; SW480 cell line, read-out: Colorectal cancer, EC50 (μM) SW480
  EC50: 0.353 µM
[16]; A-427, A427 cell line, read-out: Lung cancer, EC50 (μM) A427
  EC50: 0.443 µM
[16]; HCC78, HCC-78 cell line, read-out: Lung cancer, EC50 (μM) HCC-78
  EC50: 0.997 µM
[16]; NCI-H460 cell line, read-out: Lung cancer, EC50 (μM) NCI-H460
  EC50: 0.32 µM
[16]; NCI-H522 cell line, read-out: Lung cancer, EC50 (μM) NCI-H522
  EC50: 0.19 µM
[17]; BXPC-3, BxPC3 cell line, read-out: Pancreatic cancer, EC50 BxPC3
  EC50: 1050 nM
[17]; CAPAN-1, Capan1 cell line, read-out: Pancreatic cancer, EC50 Capan1
  EC50: 228 nM
[17]; Capan-2, Capan2 cell line, read-out: Pancreatic cancer, EC50 Capan2
  EC50: 55 nM
[17]; MIA PaCa-2 cell line, read-out: Pancreatic cancer, EC50 MIA PaCa-2
  EC50: 175 nM
[17]; PANC 05.04 cell line, read-out: Pancreatic cancer, EC50 PANC 05.04
  EC50: 226 nM
[17]; PANC-1 cell line, read-out: Pancreatic cancer, EC50 PANC-1
  EC50: 666 nM
[17]; UPAFII cell line, read-out: Pancreatic cancer, EC50 UPAFII
  EC50: 282 nM
